This passage reports AC50 and Emax results from US20230278984A1 (Global Blood Therapeutics, Inc., priority 2020, published 2023).

This test addresses T1, Human pyruvate kinase R (PKR) (Homo sapiens, UniProt P30613).
T1 construct: Human pyruvate kinase R (PKR), residues 14-574; 6x-His (N, cleaved yes); 8x-Arg (N, cleaved yes); SUMO (N, cleaved yes); host or cells: E. coli
As to the kind of experiment: Biochemical assay for activation of pyruvate kinase R (Kinase-Glo luminescence measurement of ATP generation). The conditions noted are these: for AC50: PKR biochemical assay, 0.1 nM PKR, 0.3 mM ADP, 2 mM FBP, 0.1 mM PEP; for Emax: maximal activation level relative to the activation level achieved by the literature compound AG-348 @ 10 μM. The method, boiled down:
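Recombinant human PKR (residues 14-574), E. coli-expressed with His-Arg-SUMO tag removed, purified by Ni-NTA, anion exchange and size exclusion. Activation measured as ATP generation via Kinase-Glo luminescence.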
In general terms: In Kinase-Glo more light means more ATP remaining.

Each structure is given as a SMILES string.

T1 sequence (P30613 14-574): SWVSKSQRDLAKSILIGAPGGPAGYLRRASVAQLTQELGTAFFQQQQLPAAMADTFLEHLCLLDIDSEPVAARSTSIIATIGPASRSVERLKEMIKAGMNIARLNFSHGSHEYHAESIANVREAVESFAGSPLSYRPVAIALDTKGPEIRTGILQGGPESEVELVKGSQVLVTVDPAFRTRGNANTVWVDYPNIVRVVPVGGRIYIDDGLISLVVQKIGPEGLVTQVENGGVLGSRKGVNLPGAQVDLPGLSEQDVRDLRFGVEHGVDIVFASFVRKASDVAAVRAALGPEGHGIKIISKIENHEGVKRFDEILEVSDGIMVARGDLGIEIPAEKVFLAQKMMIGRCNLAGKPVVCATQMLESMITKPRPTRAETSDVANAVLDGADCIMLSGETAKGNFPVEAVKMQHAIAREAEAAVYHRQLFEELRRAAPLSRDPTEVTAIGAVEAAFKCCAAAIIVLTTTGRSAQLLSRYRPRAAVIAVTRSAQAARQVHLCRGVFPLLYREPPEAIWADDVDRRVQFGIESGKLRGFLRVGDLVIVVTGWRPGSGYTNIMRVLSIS

Regarding `Cc1nc(CNC(=O)NCc2ncnn2-c2cc(F)c3ncccc3c2)n(-c2ccc(Cl)c(F)c2)n1` [Compound 102], the AC50 (usually the concentration giving half of the maximal activity seen) was determined as 0.035 µM and the Emax (in general, the maximal effect, on the per cent scale that the assay sets) was determined as 71%.

`Cc1nc(CNC(=O)NCc2ncnn2-c2ccc3c(cnn3C)c2)n(-c2ccc(Cl)c(F)c2)n1` [Compound 51, 1-{[1-(4-chloro-3-fluorophenyl)-3-methyl-1H-1,2,4-triazol-5-yl]methyl}-3-{[1-(1-methyl-1H-indazol-5-yl)-1H-1,2,4-triazol-5-yl]methyl}urea] gave an AC50 of 0.066 µM and an Emax of 75%.

`CCN(Cc1ncnn1-c1ccc(Cl)c(F)c1)C(=O)NCc1ncnn1-c1ccc(OC)nc1` [Compound 120, 3-{[1-(4-chloro-3-fluorophenyl)-1H-1,2,4-triazol-5-yl]methyl}-3-ethyl-1-{[1-(6-methoxypyridin-3-yl)-1H-1,2,4-triazol-5-yl]methyl}urea]: the activity was half-maximal at 0.22 µM (AC50) and the Emax came to 51%.

As to `CN(Cc1ncnn1-c1ccc(Cl)c(F)c1)C(=O)NCc1nnnn1-c1ccc(Cl)c(F)c1` [Compound 33, 1-{[1-(4-chloro-3-fluorophenyl)-1H-1,2,3,4-tetrazol-5-yl]methyl}-3-{[1-(4-chloro-3-fluorophenyl)-1H-1,2,4-triazol-5-yl]methyl}-3-methylurea], half-maximal activity (AC50) was put at 0.009 µM and the Emax came to 67%.

On to `O=C1N(Cc2nnnn2-c2ccc(Cl)c(F)c2)CCCN1Cc1nnnn1-c1ccc(Cl)c(F)c1` [Compound 4, 1,3-bis({[1-(4-chloro-3-fluorophenyl)-1H-1,2,3,4-tetrazol-5-yl]methyl})-1,3-diazinan-2-one], for which the activity was half-maximal at 1.2 µM (AC50) and the Emax was determined as 80%.

In turn, `Cc1nc(CNC(=O)NCc2ncnn2-c2cnc3cccnc3c2)n(-c2ccc(Cl)c(F)c2)n1` [Compound 43, 1-{[1-(4-chloro-3-fluorophenyl)-3-methyl-1H-1,2,4-triazol-5-yl]methyl}-3-{[1-(1,5-naphthyridin-3-yl)-1H-1,2,4-triazol-5-yl]methyl}urea] had an AC50 of 0.1 µM and an Emax of 84%.

For `O=C(NCc1ncnn1CC1CCOCC1)NCc1ncnn1-c1ccc2cccnc2c1` [Compound 15, 3-({1-[(oxan-4-yl)methyl]-1H-1,2,4-triazol-5-yl}methyl)-1-{[1-(quinolin-7-yl)-1H-1,2,4-triazol-5-yl]methyl}urea], the AC50 came to 0.31 µM and the Emax amounted to 57%.

As to `Cc1nc(CNC(=O)NCc2ncnn2-c2ccc(Cl)c(F)c2)n(-c2cnc3ccccc3c2)n1` [Compound 144, 1-{[1-(4-chloro-3-fluorophenyl)-1H-1,2,4-triazol-5-yl]methyl}-3-{[3-methyl-1-(quinolin-3-yl)-1H-1,2,4-triazol-5-yl]methyl}urea], half-maximal activity (AC50) was put at 0.027 µM and the Emax came to 94%.

With `Cc1nc(CNC(=O)NCc2nnnn2-c2ccc(Cl)c(F)c2)n(-c2ccc3cccnc3c2)n1` [Compound 86, 1-{[1-(4-chloro-3-fluorophenyl)-1H-1,2,3,4-tetrazol-5-yl]methyl}-3-{[3-methyl-1-(quinolin-7-yl)-1H-1,2,4-triazol-5-yl]methyl}urea], the activity was half-maximal at 0.066 µM (AC50) and the Emax stood at 90%.

In turn, `Cc1nc(CNC(=O)NCC2=NC3(CCC3)C(=O)N2c2ccc3cccnc3c2)n(-c2ccc(Cl)c(F)c2)n1` [Compound 112, 1-{[1-(4-chloro-3-fluorophenyl)-3-methyl-1H-1,2,4-triazol-5-yl]methyl}-3-{[8-oxo-7-(quinolin-7-yl)-5,7-diazaspiro[3.4]oct-5-en-6-yl]methyl}urea] had an AC50 of 0.802 µM and an Emax of 126%.

In turn, `Cc1nc(CNC(=O)NCc2nc(C3CC3)nn2-c2ccc3cccnc3c2)n(-c2ccc(Cl)c(F)c2)n1` [Compound 55, 3-{[1-(4-chloro-3-fluorophenyl)-3-methyl-1H-1,2,4-triazol-5-yl]methyl}-1-{[3-cyclopropyl-1-(quinolin-7-yl)-1H-1,2,4-triazol-5-yl]methyl}urea] came in with an AC50 of 0.079 µM and an Emax of 90%.

In the case of `Cc1ccc(-n2nnnc2CNC(=O)NCc2nnnn2C2CCCCC2)cc1C` [Compound 72, 1-[(1-cyclohexyl-1H-1,2,3,4-tetrazol-5-yl)methyl]-3-{[1-(3,4-dimethylphenyl)-1H-1,2,3,4-tetrazol-5-yl]methyl}urea], half-maximal activity (AC50) was put at 1.8 µM and the Emax was determined as 68%.

Consider `COC(=O)c1cc(-n2ncnc2CNC(=O)NCc2nc(C)nn2-c2ccc(Cl)c(F)c2)ccc1Cl` [Compound 50, methyl 2-chloro-5-(5-{[({[1-(4-chloro-3-fluorophenyl)-3-methyl-1H-1,2,4-triazol-5-yl]methyl}carbamoyl)amino]methyl}-1H-1,2,4-triazol-1-yl)benzoate], for which half-maximal activity (AC50) was put at 0.032 µM and the Emax stood at 64%.

`Cc1nc(CNC(=O)NCc2ncnn2-c2ccc3cncnc3c2)n(-c2ccc(Cl)c(F)c2)n1` [Compound 88, 1-{[1-(4-chloro-3-fluorophenyl)-3-methyl-1H-1,2,4-triazol-5-yl]methyl}-3-{[1-(quinazolin-7-yl)-1H-1,2,4-triazol-5-yl]methyl}urea]: the AC50 turned out to be 0.07 µM and the Emax is 68%.

Compound `CCN(Cc1ncnn1CC1CCOCC1)C(=O)NCc1ncnn1-c1ccc(Cl)c(F)c1` [Compound 9, 3-{[1-(4-chloro-3-fluorophenyl)-1H-1,2,4-triazol-5-yl]methyl}-1-ethyl-1-({1-[(oxan-4-yl)methyl]-1H-1,2,4-triazol-5-yl}methyl)urea] displayed an AC50 of 0.12 µM and an Emax of 64%.

With `Cc1nc(CNC(=O)NCc2ncnn2-c2cnc3cc(F)ccc3c2)n(-c2ccc(Cl)c(F)c2)n1` [Compound 135, 1-{[1-(4-chloro-3-fluorophenyl)-3-methyl-1H-1,2,4-triazol-5-yl]methyl}-3-{[1-(7-fluoroquinolin-3-yl)-1H-1,2,4-triazol-5-yl]methyl}urea], the AC50 was found to be 0.086 µM and the Emax is 117%.

As for `Cc1nc(CNC(=O)NCc2ncnn2-c2ccc3c(c2)OCC3)n(-c2ccc(Cl)c(F)c2)n1` [Compound 24, 3-{[1-(4-chloro-3-fluorophenyl)-3-methyl-1H-1,2,4-triazol-5-yl]methyl}-1-{[1-(2,3-dihydro-1-benzofuran-6-yl)-1H-1,2,4-triazol-5-yl]methyl}urea], the AC50 was 0.024 µM and the Emax is 75%.

For the compound `Cc1nc(CNC(=O)NCc2ncnn2-c2cc(F)c3cccnc3c2)n(-c2ccc(Cl)c(F)c2)n1` [Compound 47, 1-{[1-(4-chloro-3-fluorophenyl)-3-methyl-1H-1,2,4-triazol-5-yl]methyl}-3-{[1-(5-fluoroquinolin-7-yl)-1H-1,2,4-triazol-5-yl]methyl}urea], the activity was half-maximal at 0.042 µM (AC50) and the Emax turned out to be 85%.

In turn, `Cc1nc(CNC(=O)NCc2nn(C)c(=O)n2-c2ccc(Cl)c(F)c2)n(-c2ccc(Cl)c(F)c2)n1` [Compound 90, 3-{[4-(4-chloro-3-fluorophenyl)-1-methyl-5-oxo-4,5-dihydro-1H-1,2,4-triazol-3-yl]methyl}-1-{[1-(4-chloro-3-fluorophenyl)-3-methyl-1H-1,2,4-triazol-5-yl]methyl}urea] showed an AC50 of 0.04 µM and an Emax of 97%.
